Consider one compound from patent US11485701B2, “Insect repellent compounds and compositions, and methods thereof” (Iowa State University Research Foundation, Inc., priority 2016, dated 2022).

In the test the test system is female Aedes aegypti (Orlando strain, 1952). Briefly: Minimum effective dosage testing, human skin (treated cloth patch). It counts as in vivo. The method, then:
The test mosquitoes were female Aedes aegypti (Orlando strain, 1952) from the colony maintained at United States Department of Agriculture-Agricultural Research Service-Center for Medical, Agricultural and Veterinary Entomology (USDA-ARS-CMAVE) in Gainesville, Fla. Pupae were obtained from the colony and newly emerged mosquitoes were maintained on 10% sugar water and kept in laboratory cages at an ambient temperature of 28±1° C. and RH of 35-60%. Host seeking behavior was pre-selected in nulliparous female mosquitoes aged 6-10 days, indicated by flight upwind towards a potential host, from stock cages using a hand-draw box and trapped in a collection trap.
After 500 (±10%) females were collected in the trap, they were transferred to a test cage (approximately 59,000 cm^3 with dimensions 45×37.5×35 cm) and allowed to acclimatize for 17.5 (±2.5) min before testing was initiated. Just prior to the experiment, the pieces of treated cloth are removed from the vials and stapled onto card stock tabs (5×3 cm). Each piece of the cards and the assembly were hung on a drying rack using masking tape for 3-5 min. Participants in the study used latex gloves to pull a nylon stocking over their arm. A Velcro™-sealed vinyl sleeve was then placed over the forearm. […] The purpose of the nylon stocking was to produce a barrier between the dried cloth and the skin, thereby avoiding direct contact of chemical to skin. The dried cloth assembly was affixed over the opening in the sleeve and held in place with masking tape. Participants then inserted their arm with the sleeve and patch into a screened cage that contained female Ae. Aegypti mosquitoes. Tests were conducted on each control or treated patch for 1 min. A control patch (acetone solvent only, then dried) was tested prior to the start of experiments and evaluation of the same untreated control patch after every 10 tests. If 5 landings were not received on the control patch in 30 s, then tests were discontinued for 60 min. At the conclusion of testing the control patch was tested again. If five landings were not received within 30 s, the data for the replicate was discarded. When testing a patch treated with a candidate repellent, if approximately 1% or 5 mosquito bites were received during this one minute test, this compound was considered to have failed, i.e., was not repellent at that concentration. If a treated cloth patch received 0-4 bites within a minute, then it was considered as passed, i.e., repellent at that concentration of the test compound. The median concentration patch was tested in the first round and treated patches were then tested successively at higher or lower concentrations depending upon whether the previous patch failed or passed, respectively.
The time interval between each tested patch was <90 seconds until 10 successive tests had been conducted. If appreciable, mortality had occurred during testing, the number of knocked down mosquitoes are estimated and additional female mosquitoes are added to the cage to keep the available mosquitoes at approximately 500. The estimate of the MED was the lowest concentration that passed for each candidate. Observed MED values for each candidate compound were averaged across participants and reported as a mean MED±standard error.

The mark [1] stands for this setting: treated cloth patch, 1 min test, high dose 1.5 mg/cm^2.

`CC(C)=CCCC(C)CC(=O)OCC(C)O` (stereo not shown) [Compound 2144, 2-hydroxypropyl citronellate] showed a Minimum effective dosage of 0.055 mg/cm². The “Proportion to DEET” value (average MED relative to DEET) worked out at 2.053. Moreover, the “Minimum effective dosage testing, result in words” value (in vivo) is given as “performed similarly to DEET”. Also, the “Minimum Effective Dosage, Average” value (mean across subjects) is 0.039 mg/cm^2. Further, under setting [1], the “Minimum Effective Dosage, Subject 1” value came to 0.047 mg/cm^2; the “Minimum Effective Dosage, Subject 2” value was found to be 0.047 mg/cm^2; the “Minimum Effective Dosage, Subject 3” value turned out to be 0.023 mg/cm^2.
